In patent US10933063B2 (priority 2017, dated 2021):
pIC50: −log10 of the molar value. Read-outs that look alike come from different tables or passages of the source.

How the values were obtained:
BTK [1] = molecular target: T1, BTK (Homo sapiens (Human), UniProt Q06187)
LYN = LYN (Homo sapiens (Human), UniProt P07948); conditions: read-out: LYN IC50, [ATP]=20 μM
Protocol: (§1) Btk kinase activity was determined using a homogenous time resolved fluorescence (HTRF) methodology. Measurements were performed in a reaction volume of 15 μL using 384-well assay plates. Kinase enzyme, inhibitor, ATP and 1 μM peptide substrate were incubated in a reaction buffer compose of Hepes50 mM (pH7.0), NaN3 0.02%, BSA 0.01%, Orthocanadate 0.1 mM. […] For each compound, enzyme activity as measured at various concentrations of compound, Negative control reactions were performed in the absence of inhibitor in two replicates and eight no enzyme controls were used to determine baseline fluorescence levels.
(§2) For LYN assay, [ATP]=20 μM, LYN=0.12 n M. For LCK assay, [ATP]=20 μM, LCK=0.2 nM.

LCK = LCK (Homo sapiens (Human), UniProt P06239); conditions: read-out: LCK IC50; [ATP]=20 μM, LCK=0.2 nM
Protocol: as §1, §2

BTK [2] = molecular target: T1, BTK; experiment: biochemical
TEC = TEC (Homo sapiens (Human), UniProt P42680); experiment: biochemical
EGFR = EGFR (Homo sapiens (Human), UniProt P00533); experiment: biochemical
ITK = ITK (Homo sapiens (Human), UniProt Q08881); experiment: biochemical
Btk [3] = molecular target: Btk (Mus musculus (Mouse), UniProt P35991); experiment: Btk occupancy in vivo (PBMCs or splenocytes, PCI-33380 labeling); conditions: 4 hours after dosing, Babc/L mice
Btk, sequence (P35991 whole entry, looked up): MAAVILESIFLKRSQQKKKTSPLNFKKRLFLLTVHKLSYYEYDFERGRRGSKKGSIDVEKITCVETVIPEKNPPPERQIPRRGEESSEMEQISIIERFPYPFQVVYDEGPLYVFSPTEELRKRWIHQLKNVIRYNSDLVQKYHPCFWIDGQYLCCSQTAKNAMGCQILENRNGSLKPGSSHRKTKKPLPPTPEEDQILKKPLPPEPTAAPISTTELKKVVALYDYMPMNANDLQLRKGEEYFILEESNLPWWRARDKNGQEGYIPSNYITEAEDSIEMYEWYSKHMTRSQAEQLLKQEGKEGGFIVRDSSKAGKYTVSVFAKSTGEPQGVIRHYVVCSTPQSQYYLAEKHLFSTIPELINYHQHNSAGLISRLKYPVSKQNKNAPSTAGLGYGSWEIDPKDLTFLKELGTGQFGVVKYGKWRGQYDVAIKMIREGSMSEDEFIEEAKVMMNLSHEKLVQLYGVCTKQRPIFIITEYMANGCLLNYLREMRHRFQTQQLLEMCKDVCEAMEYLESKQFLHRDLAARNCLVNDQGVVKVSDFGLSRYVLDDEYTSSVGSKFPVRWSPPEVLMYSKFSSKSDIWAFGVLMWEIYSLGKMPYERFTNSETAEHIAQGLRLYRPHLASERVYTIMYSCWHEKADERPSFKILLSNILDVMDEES
Protocol: For analysis of Btk occupancy in Babc/L mice following oral dosing of compounds after 4 hours. Isolating peripheral blood mononuclear cells (PBMCs) with mouse peripheral blood separation kit (Hao Yang Biological Manufacture CO., LTD, Tianjin) were collected from Babc/L mice (1 ml blood from two mice). Spleens were processed to splenocytes followed by 5 min incubation in red blood cell lysing buffer (from mouse peripheral blood separation kit).

LCK, sequence (P06239 whole entry, looked up, species assumed): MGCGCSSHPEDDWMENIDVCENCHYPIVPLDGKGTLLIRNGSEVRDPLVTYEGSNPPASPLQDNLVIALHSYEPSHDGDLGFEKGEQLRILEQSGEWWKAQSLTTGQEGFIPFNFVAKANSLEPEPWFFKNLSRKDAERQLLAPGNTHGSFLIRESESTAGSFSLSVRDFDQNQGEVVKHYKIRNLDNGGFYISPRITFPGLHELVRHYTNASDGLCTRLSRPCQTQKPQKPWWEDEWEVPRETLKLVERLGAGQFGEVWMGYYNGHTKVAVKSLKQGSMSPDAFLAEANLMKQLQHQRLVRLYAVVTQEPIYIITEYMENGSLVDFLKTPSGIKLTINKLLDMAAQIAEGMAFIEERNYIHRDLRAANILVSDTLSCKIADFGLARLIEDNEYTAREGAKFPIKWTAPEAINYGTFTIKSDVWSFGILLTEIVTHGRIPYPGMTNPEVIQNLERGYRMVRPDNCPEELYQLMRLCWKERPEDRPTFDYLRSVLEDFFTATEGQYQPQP
TEC, sequence (P42680 whole entry, looked up): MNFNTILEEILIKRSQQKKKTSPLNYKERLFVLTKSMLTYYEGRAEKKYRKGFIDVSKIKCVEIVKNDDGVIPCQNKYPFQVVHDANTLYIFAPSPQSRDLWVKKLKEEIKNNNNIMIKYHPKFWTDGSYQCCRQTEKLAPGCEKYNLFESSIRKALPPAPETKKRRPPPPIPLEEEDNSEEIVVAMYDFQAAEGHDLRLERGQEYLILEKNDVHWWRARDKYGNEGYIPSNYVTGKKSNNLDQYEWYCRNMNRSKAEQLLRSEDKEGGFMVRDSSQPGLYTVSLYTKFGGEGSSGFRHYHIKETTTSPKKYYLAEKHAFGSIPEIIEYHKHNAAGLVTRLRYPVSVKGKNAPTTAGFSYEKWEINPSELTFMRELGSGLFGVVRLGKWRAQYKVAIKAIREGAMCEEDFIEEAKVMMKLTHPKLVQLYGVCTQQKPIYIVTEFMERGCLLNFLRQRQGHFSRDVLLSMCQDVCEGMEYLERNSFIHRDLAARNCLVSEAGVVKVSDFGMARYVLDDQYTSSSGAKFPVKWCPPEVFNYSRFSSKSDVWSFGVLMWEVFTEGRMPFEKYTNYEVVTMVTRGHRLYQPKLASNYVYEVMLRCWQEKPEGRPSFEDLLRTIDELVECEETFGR
T1 sequence (Q06187 whole entry, looked up, species assumed): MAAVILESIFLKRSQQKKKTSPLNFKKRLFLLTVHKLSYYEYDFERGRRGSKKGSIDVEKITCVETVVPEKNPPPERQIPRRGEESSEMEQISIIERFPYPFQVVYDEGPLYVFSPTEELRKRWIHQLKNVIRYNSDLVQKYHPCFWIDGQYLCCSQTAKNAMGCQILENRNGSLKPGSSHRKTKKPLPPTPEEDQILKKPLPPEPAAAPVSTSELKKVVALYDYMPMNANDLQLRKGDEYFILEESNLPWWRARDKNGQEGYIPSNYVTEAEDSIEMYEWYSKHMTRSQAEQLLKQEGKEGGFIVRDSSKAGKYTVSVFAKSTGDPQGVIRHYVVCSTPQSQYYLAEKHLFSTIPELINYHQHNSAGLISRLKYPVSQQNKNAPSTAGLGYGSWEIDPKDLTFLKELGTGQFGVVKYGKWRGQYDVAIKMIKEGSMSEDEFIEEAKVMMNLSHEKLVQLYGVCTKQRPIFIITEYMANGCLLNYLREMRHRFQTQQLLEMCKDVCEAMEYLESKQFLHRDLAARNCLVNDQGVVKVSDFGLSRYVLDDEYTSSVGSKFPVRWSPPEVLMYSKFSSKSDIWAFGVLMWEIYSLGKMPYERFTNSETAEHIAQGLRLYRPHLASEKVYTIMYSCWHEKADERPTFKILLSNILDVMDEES
EGFR, sequence (P00533 whole entry, looked up, species assumed): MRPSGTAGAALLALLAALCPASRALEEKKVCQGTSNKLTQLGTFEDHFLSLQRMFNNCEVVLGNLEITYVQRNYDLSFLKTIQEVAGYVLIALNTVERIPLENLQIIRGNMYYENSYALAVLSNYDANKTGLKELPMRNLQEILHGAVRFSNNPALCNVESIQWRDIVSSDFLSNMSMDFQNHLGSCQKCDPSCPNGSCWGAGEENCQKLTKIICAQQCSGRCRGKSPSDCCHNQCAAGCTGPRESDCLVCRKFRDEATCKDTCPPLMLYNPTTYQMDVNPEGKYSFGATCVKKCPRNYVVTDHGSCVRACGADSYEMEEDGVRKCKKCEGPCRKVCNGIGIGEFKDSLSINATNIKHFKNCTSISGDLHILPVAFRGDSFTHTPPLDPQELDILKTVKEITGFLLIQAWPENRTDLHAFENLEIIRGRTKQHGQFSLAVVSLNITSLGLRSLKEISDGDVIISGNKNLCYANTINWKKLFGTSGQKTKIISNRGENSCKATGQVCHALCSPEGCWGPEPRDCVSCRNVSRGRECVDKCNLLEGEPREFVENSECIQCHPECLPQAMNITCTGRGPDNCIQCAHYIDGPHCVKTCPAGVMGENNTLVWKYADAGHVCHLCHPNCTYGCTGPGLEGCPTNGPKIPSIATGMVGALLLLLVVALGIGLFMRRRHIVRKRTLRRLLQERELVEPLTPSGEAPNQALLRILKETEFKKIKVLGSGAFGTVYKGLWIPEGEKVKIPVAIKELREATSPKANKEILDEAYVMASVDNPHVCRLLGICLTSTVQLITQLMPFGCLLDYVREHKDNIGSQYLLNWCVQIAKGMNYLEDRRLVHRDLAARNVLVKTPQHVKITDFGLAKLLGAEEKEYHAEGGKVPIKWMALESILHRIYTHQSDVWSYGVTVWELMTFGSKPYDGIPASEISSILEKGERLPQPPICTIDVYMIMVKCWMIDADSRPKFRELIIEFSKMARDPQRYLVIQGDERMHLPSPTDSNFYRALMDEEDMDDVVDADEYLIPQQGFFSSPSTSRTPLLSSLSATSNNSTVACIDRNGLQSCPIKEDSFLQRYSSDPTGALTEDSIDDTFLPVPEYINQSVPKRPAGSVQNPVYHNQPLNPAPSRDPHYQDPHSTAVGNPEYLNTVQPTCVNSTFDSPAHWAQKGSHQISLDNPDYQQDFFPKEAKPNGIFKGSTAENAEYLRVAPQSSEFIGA
LYN, sequence (P07948 whole entry, looked up, species assumed): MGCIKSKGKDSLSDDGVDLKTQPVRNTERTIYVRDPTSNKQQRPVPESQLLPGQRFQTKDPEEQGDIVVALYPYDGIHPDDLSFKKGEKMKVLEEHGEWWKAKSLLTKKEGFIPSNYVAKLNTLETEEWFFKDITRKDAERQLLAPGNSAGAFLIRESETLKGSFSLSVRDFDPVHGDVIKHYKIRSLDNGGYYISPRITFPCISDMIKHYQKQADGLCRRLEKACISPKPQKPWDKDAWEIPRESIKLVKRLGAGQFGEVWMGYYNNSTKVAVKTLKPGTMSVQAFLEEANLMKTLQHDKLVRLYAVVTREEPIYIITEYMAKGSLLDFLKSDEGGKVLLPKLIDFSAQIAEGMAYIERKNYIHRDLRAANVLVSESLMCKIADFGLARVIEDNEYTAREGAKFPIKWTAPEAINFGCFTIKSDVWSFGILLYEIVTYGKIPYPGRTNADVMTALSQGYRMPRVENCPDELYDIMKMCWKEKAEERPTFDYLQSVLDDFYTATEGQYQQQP
ITK, sequence (Q08881 whole entry, looked up, species assumed): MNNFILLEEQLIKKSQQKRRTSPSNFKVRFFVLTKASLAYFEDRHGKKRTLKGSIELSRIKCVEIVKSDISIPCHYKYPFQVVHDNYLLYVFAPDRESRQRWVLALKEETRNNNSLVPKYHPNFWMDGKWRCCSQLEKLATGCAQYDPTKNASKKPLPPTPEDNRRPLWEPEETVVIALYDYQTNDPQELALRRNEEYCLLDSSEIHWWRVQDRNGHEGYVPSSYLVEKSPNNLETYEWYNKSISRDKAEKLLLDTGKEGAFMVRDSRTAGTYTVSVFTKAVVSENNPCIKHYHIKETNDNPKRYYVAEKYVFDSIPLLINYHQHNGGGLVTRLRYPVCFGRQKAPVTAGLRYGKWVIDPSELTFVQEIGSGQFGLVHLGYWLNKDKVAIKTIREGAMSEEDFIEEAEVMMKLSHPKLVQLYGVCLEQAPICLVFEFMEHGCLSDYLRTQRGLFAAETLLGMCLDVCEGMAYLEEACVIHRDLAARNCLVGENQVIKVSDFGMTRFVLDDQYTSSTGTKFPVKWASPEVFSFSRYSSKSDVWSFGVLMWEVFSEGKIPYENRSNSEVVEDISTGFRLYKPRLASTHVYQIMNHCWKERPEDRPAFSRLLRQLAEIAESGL

C=CC(=O)N1CCC[C@H]1c1nc(-c2ccc(OCc3c(F)cccc3F)cc2)c2cnccn12 [Example 136, (S)-1-(2-(1-(4-((2,6-difluorobenzyl)oxy)phenyl)imidazo[1,5-a]pyrazin-3-yl)pyrrolidin-1-yl)prop-2-en-1-one]
pIC50 (BTK [1]; read-out: BTK IC50): 7.00 to 8.00
pIC50 (LYN): < 5.00
pIC50 (LCK): < 5.00
pIC50 (BTK [2]): 7.00 to 8.00
pIC50 (TEC): 6.00 to 7.00
pIC50 (EGFR): 5.00 to 6.00
pIC50 (ITK): 5.00 to 6.00

C=CC(=O)N1CCC[C@H]1c1nc(-c2ccc(Oc3cccc(F)c3F)cc2)c2cnccn12 [Example 20, (S)-1-(2-(1-(4-(2,3-difluorophenoxy)phenyl)imidazo[1,5-a]pyrazin-3-yl)pyrrolidin-1-yl)prop-2-en-1-one]
pIC50 (BTK [1]; read-out: BTK IC50): > 8.00
pIC50 (BTK [1]; read-out: BTK Inhibition): > 8.00
pIC50 (LYN): < 5.00
pIC50 (LCK): < 5.00
pIC50 (TEC): 6.00 to 7.00
pIC50 (EGFR): 5.00 to 6.00
pIC50 (ITK): 5.00 to 6.00

CC#CC(=O)N1CC[C@@H](c2nc(-c3ccc(Oc4cccc(OC)c4F)cc3)c3cncc(OCC)n23)C1 [Example 93, (R)-1-(3-(5-ethoxy-1-(4-(2-fluoro-3-methoxyphenoxy)phenyl)imidazo[1,5-a]pyrazin-3-yl)pyrrolidin-1-yl)but-2-yn-1-one]
pIC50 (BTK [1]; read-out: BTK Inhibition): > 8.00

C=CC(=O)N1CCC[C@H]1c1nc(-c2ccc(Oc3cccc(Cl)c3F)cc2)c2cnccn12 [Example 22, (S)-1-(2-(1-(4-(3-chloro-2-fluorophenoxy)phenyl)imidazo[1,5-a]pyrazin-3-yl)pyrrolidin-1-yl)prop-2-en-1-one]
pIC50 (BTK [1]; read-out: BTK Inhibition): > 8.00

C=CC(=O)N1CCC[C@@H](c2nc(-c3ccc(Oc4cccc(OC)c4F)cc3)c3cnccn23)C1 [Example 1, (R)-1-(3-(1-(4-(2-fluoro-3-methoxyphenoxy)phenyl)imidazo[1,5-a]pyrazin-3-yl)piperidin-1-yl)prop-2-en-1-one]
Btk occupancy in vivo (Btk [3]; 5 mg/kg single oral dose): full occupancy
pIC50 (BTK [1]; read-out: BTK IC50): > 8.00
pIC50 (BTK [1]; read-out: BTK Inhibition): > 8.00
pIC50 (LYN): < 5.00
pIC50 (LCK): < 5.00
pIC50 (TEC): 6.00 to 7.00
pIC50 (EGFR): 6.00 to 7.00
pIC50 (ITK): 5.00 to 6.00

C=CC(=O)N1CCCC[C@H]1c1nc(-c2ccc(C(=O)Nc3ccccn3)cc2)c2c(C(F)(F)F)nccn12 [Example 199, (S)-4-(3-(1-acryloylpiperidin-2-yl)-8-(trifluoromethyl)imidazo[1,5-a]pyrazin-1-yl)-N-(pyridin-2-yl)benzamide]
pIC50 (BTK [1]; read-out: BTK Inhibition): < 5.00

CC#CC(=O)N1CCCC[C@H]1c1nc(-c2ccc(C(=O)Nc3ccccn3)cc2)c2c(C(F)(F)F)nccn12 [Example 200, (S)-4-(3-(1-(but-2-ynoyl)piperidin-2-yl)-8-(trifluoromethyl)imidazo [1,5-a]pyrazin-1-yl)-N-(pyridin-2-yl)benzamide]
pIC50 (BTK [1]; read-out: BTK Inhibition): < 5.00

C=CC(=O)N1CC[C@@H](c2nc(-c3ccc(Oc4cccc(OC)c4F)cc3)c3c(C)ncc(C)n23)C1 [Example 74, (R)-1-(3-(1-(4-(2-fluoro-3-methoxyphenoxy)phenyl)-5,8-dimethylimidazo[1,5-a]pyrazin-3-yl)pyrrolidin-1-yl)prop-2-en-1-one]
pIC50 (BTK [1]; read-out: BTK Inhibition): > 8.00

CC#CC(=O)N1CCCC[C@H]1c1nc(-c2ccc(Oc3cccc(OC)c3F)cc2)c2c(C)nccn12 [Example 5, (S)-1-(2-(1-(4-(2-Fluoro-3-methoxyphenoxy)phenyl)-8-methylimidazo[1,5-a]pyrazin-3-yl)piperidin-1-yl)but-2-yn-1-one]
Btk occupancy in vivo (Btk [3]; 10 mg/kg single oral dose): full occupancy

CC#CC(=O)N1CCCC[C@H]1c1nc(-c2ccc(C(=O)Nc3cc(C(F)(F)F)ccn3)cc2)c2c(C(F)(F)F)nccn12 [Example 202, (S)-4-(3-(1-(but-2-ynoyl)piperidin-2-yl)-8-(trifluoromethyl)imidazo [1,5-a]pyrazin-1-yl)-N-(4-(trifluoromethyl)pyridin-2-yl)benzamide]
pIC50 (BTK [1]; read-out: BTK Inhibition): < 5.00

COc1cccc(Oc2ccc(-c3nc([C@@H]4CCN(C(=O)/C=C/CN(C)C5CC5)C4)n4ccnc(C)c34)cc2)c1F [Example 105, (R,E)-4-(cyclopropyl(methyl)amino)-1-(3-(1-(4-(2-fluoro-3-methoxyphenoxy)phenyl)-8-methylimidazo[1,5-a]pyrazin-3-yl)pyrrolidin-1-yl)but-2-en-1-one]
pIC50 (BTK [1]; read-out: BTK Inhibition): > 8.00

CC#CC(=O)N1CC[C@@H](c2nc(-c3ccc(Oc4cccc(OC)c4F)cc3)c3c(OC)nccn23)C1 [Example 116, (R)-1-(3-(1-(4-(2-fluoro-3-methoxyphenoxy)phenyl)-8-methoxyimidazo[1,5-a]pyrazin-3-yl)pyrrolidin-1-yl)but-2-yn-1-one]
pIC50 (BTK [1]; read-out: BTK Inhibition): < 5.00

C=CC(=O)N1CCCC[C@H]1c1nc(-c2ccc(C(=O)Nc3ccccn3)cc2)c2c(C)nccn12 [Example 170, (S)-4-(3-(1-acryloylpiperidin-2-yl)-8-methylimidazo [1,5-a]pyrazin-1-yl)-N-(pyridin-2-yl)benzamide]
pIC50 (BTK [1]; read-out: BTK Inhibition): > 8.00

CC#CC(=O)N1CC[C@@H](c2nc(-c3ccc(Oc4cccc(OC)c4F)cc3)c3cncc(OCCC)n23)C1 [Example 96, (R)-1-(3-(1-(4-(2-fluoro-3-methoxyphenoxy)phenyl)-5-propoxyimidazo[1,5-a]pyrazin-3-yl)pyrrolidin-1-yl)but-2-yn-1-one]
pIC50 (BTK [1]; read-out: BTK Inhibition): > 8.00

C=CC(=O)N1CCC[C@H]1c1nc(-c2ccc(Oc3cccc(OC)c3F)cc2)c2cnccn12 [Example 30, (S)-1-(2-(1-(4-(2-fluoro-3-methoxyphenoxy)phenyl)imidazo[1,5-a]pyrazin-3-yl)pyrrolidin-1-yl)prop-2-en-1-one]
Btk occupancy in vivo (Btk [3]; 5 mg/kg single oral dose): full occupancy
pIC50 (BTK [1]; read-out: BTK IC50): > 8.00
pIC50 (BTK [1]; read-out: BTK Inhibition): > 8.00
pIC50 (LYN): < 5.00
pIC50 (LCK): < 5.00
pIC50 (TEC): 6.00 to 7.00

C=CC(=O)N1CC[C@@H](c2nc(-c3ccc(Oc4cccc(OC)c4F)cc3)c3cncc(OCCN(C)C)n23)C1 [Example 89, (R)-1-(3-(5-(2-(dimethylamino)ethoxy)-1-(4-(2-fluoro-3-methoxyphenoxy)phenyl)imidazo[1,5-a]pyrazin-3-yl)pyrrolidin-1-yl)prop-2-en-1-one]
pIC50 (BTK [1]; read-out: BTK Inhibition): > 8.00

C=CC(=O)N1CCC[C@H]1c1nc(-c2ccc(Oc3cccc(OC)c3)cc2)c2cnccn12 [Example 16, (S)-1-(2-(1-(4-(3-methoxyphenoxy)phenyl)imidazo[1,5-a]pyrazin-3-yl)pyrrolidin-1-yl)prop-2-en-1-one]
pIC50 (BTK [1]; read-out: BTK IC50): > 8.00
pIC50 (BTK [1]; read-out: BTK Inhibition): > 8.00
pIC50 (LYN): < 5.00
pIC50 (LCK): < 5.00
pIC50 (TEC): 6.00 to 7.00
pIC50 (EGFR): 5.00 to 6.00
pIC50 (ITK): 5.00 to 6.00

C=CC(=O)N1CC[C@@H](c2nc(-c3ccc(Oc4cccc(OC)c4F)cc3)c3cncc(OC)n23)C1 [Example 85, (R)-1-(3-(1-(4-(2-fluoro-3-methoxyphenoxy)phenyl)-5-methoxyimidazo[1,5-a]pyrazin-3-yl)pyrrolidin-1-yl)prop-2-en-1-one]
pIC50 (BTK [1]; read-out: BTK Inhibition): > 8.00

C=CC(=O)N1CCCC[C@H]1c1nc(-c2ccc(Oc3cccc(F)c3)cc2)c2c(C)nccn12 [Example 55, (S)-1-(2-(1-(4-(3-fluorophenoxy)phenyl)-8-methylimidazo[1,5-a]pyrazin-3-yl)piperidin-1-yl)prop-2-en-1-one]
pIC50 (BTK [1]; read-out: BTK Inhibition): > 8.00

C=CC(=O)N1CC[C@@H](c2nc(-c3ccc(C(=O)Nc4ccccn4)cc3)c3c(C)ncc(OCC)n23)C1 [Example 206, (R)-4-(3-(1-acryloylpyrrolidin-3-yl)-5-ethoxy-8-methylimidazo[1,5-a]pyrazin-1-yl)-N-(pyridin-2-yl)benzamide]
pIC50 (BTK [1]; read-out: BTK Inhibition): > 8.00

C=CC(=O)N1CC[C@@H](c2nc(-c3ccc(Oc4cccc(OC)c4F)cc3)c3cncc(OCC)n23)C1 [Example 94, (R)-1-(3-(5-ethoxy-1-(4-(2-fluoro-3-methoxyphenoxy)phenyl)imidazo[1,5-a]pyrazin-3-yl)pyrrolidin-1-yl)prop-2-en-1-one]
pIC50 (BTK [1]; read-out: BTK Inhibition): > 8.00

C=CC(=O)N1CCCC[C@H]1c1nc(-c2ccc(Oc3cccc(OC)c3F)cc2)c2c(C)nccn12 [Example 27, (S)-1-(2-(1-(4-(2-fluoro-3-methoxyphenoxy)phenyl)-8-methylimidazo[1,5-a]pyrazin-3-yl)piperidin-1-yl)prop-2-en-1-one]
Btk occupancy in vivo (Btk [3]; 10 mg/kg single oral dose): full occupancy
pIC50 (BTK [1]; read-out: BTK IC50): > 8.00
pIC50 (BTK [1]; read-out: BTK Inhibition): > 8.00
pIC50 (LYN): < 5.00
pIC50 (LCK): < 5.00
pIC50 (TEC): 6.00 to 7.00
pIC50 (EGFR): 6.00 to 7.00
pIC50 (ITK): 5.00 to 6.00

C=CC(=O)N1CCC[C@H]1c1nc(-c2ccc(Oc3cccc(OC)c3F)cc2)c2c(C)nccn12 [Example 61, (S)-1-(2-(1-(4-(2-fluoro-3-methoxyphenoxy)phenyl)-8-methylimidazo[1,5-a]pyrazin-3-yl)pyrrolidin-1-yl)prop-2-en-1-one]
pIC50 (BTK [1]; read-out: BTK Inhibition): > 8.00

CN(C)C(=O)N1CCCC[C@H]1c1nc(-c2ccc(C(=O)Nc3ccccn3)cc2)c2c(C(F)(F)F)nccn12 [Example 215, (S)-N,N-dimethyl-2-(1-(4-(pyridin-2-ylcarbamoyl)phenyl)-8-(trifluoromethyl)imidazo [1,5-a]pyrazin-3-yl) piperidine-1-carboxamide]
pIC50 (BTK [1]; read-out: BTK Inhibition): < 5.00

CC#CC(=O)N1CC[C@@H](c2nc(-c3ccc(Oc4cccc(OC)c4F)cc3)c3cncc(OCCCC)n23)C1 [Example 97, (R)-1-(3-(5-butoxy-1-(4-(2-fluoro-3-methoxyphenoxy)phenyl)imidazo[1,5-a]pyrazin-3-yl)pyrrolidin-1-yl)but-2-yn-1-one]
pIC50 (BTK [1]; read-out: BTK Inhibition): > 8.00

C=CC(=O)N1CCC[C@H]1c1nc(-c2ccc(Oc3cccc(OC)c3F)cc2)c2c(C)ncc(C)n12 [Example 64, (S)-1-(2-(1-(4-(2-fluoro-3-methoxyphenoxy)phenyl)-5,8-dimethylimidazo[1,5-a]pyrazin-3-yl)pyrrolidin-1-yl)prop-2-en-1-one]
pIC50 (BTK [1]; read-out: BTK Inhibition): > 8.00
